Test results from PMC6199309, “A therapeutic approach to pantothenate kinase associated neurodegeneration” (Nature Communications, 2018).

Columns and labels:
Assay in all cases: KINOMEscan
Assay type in all cases: binding
Settings in all cases: read-out: %Ctrl @ 10000nM
[1] = molecular target: T1, LTK (Homo sapiens, UniProt P29376)
T1 construct: purchased DiscoverX KINOMEscan

[2] = molecular target: T2, MYO3B (Homo sapiens, UniProt Q8WXR4)
T2 construct: purchased DiscoverX KINOMEscan

[3] = molecular target: T3, JNK3 (Homo sapiens, UniProt P53779)
T3 construct: purchased DiscoverX KINOMEscan

[4] = molecular target: T4, ERK2 (Homo sapiens, UniProt P28482)
T4 construct: purchased DiscoverX KINOMEscan

[5] = molecular target: T5, SIK (Homo sapiens, UniProt P57059)
T5 construct: purchased DiscoverX KINOMEscan

[6] = molecular target: T6, DCAMKL2 (Homo sapiens, UniProt Q8N568)
T6 construct: purchased DiscoverX KINOMEscan

[7] = molecular target: T7, EGFR(L861Q) (Homo sapiens, UniProt P00533, L861Q)
T7 construct: purchased DiscoverX KINOMEscan

[8] = molecular target: T8, CSNK2A2 (Homo sapiens, UniProt P19784)
T8 construct: purchased DiscoverX KINOMEscan

[9] = molecular target: T9, SBK1 (Homo sapiens, UniProt Q52WX2)
T9 construct: purchased DiscoverX KINOMEscan

[10] = molecular target: T10, CAMK2D (Homo sapiens, UniProt Q13557)
T10 construct: purchased DiscoverX KINOMEscan

[11] = molecular target: T11, EIF2AK1 (Homo sapiens, UniProt Q9BQI3)
T11 construct: purchased DiscoverX KINOMEscan

[12] = molecular target: T12, SRPK2 (Homo sapiens, UniProt P78362)
T12 construct: purchased DiscoverX KINOMEscan

[13] = molecular target: T13, CDK9 (Homo sapiens, UniProt P50750)
T13 construct: purchased DiscoverX KINOMEscan

[14] = molecular target: T14, NIM1 (Homo sapiens, UniProt Q8IY84)
T14 construct: purchased DiscoverX KINOMEscan

[15] = molecular target: T15, PAK2 (Homo sapiens, UniProt Q13177)
T15 construct: purchased DiscoverX KINOMEscan

[16] = molecular target: T16, CAMKK2 (Homo sapiens, UniProt Q96RR4)
T16 construct: purchased DiscoverX KINOMEscan

[17] = molecular target: T17, CDK8 (Homo sapiens, UniProt P49336)
T17 construct: purchased DiscoverX KINOMEscan

[18] = molecular target: T18, FGFR3(G697C) (Homo sapiens, UniProt P22607, G697C)
T18 construct: purchased DiscoverX KINOMEscan

[19] = molecular target: T19, EGFR(L858R,T790M) (Homo sapiens, UniProt P00533, L858R/T790M)
T19 construct: purchased DiscoverX KINOMEscan

[20] = molecular target: T20, FLT3(D835Y) (Homo sapiens, UniProt P36888, D835Y)
T20 construct: purchased DiscoverX KINOMEscan

[21] = molecular target: T21, EGFR(G719S) (Homo sapiens, UniProt P00533, G719S)
T21 construct: purchased DiscoverX KINOMEscan

[22] = molecular target: T22, PHKG1 (Homo sapiens, UniProt Q16816)
T22 construct: purchased DiscoverX KINOMEscan

[23] = molecular target: T23, CDKL3 (Homo sapiens, UniProt Q8IVW4)
T23 construct: purchased DiscoverX KINOMEscan

[24] = molecular target: T24, RSK1(Kin.Dom.2-C-terminal) (Homo sapiens, UniProt Q15418)
T24 construct: RSK1(Kin.Dom.2-C-terminal); purchased DiscoverX KINOMEscan

[25] = molecular target: T25, VPS34 (Homo sapiens, UniProt Q8NEB9)
T25 construct: DNA label for qPCR (T7 phage fusion or DNA tag); purchased DiscoverX scanMAX; host or cells: E. coli BL21-derived (T7 phage) or HEK-293

[26] = molecular target: T26, CDK7 (Homo sapiens, UniProt P50613)
T26 construct: purchased DiscoverX KINOMEscan

[27] = molecular target: T27, RIPK5 (Homo sapiens, UniProt Q6XUX3)
T27 construct: purchased DiscoverX KINOMEscan

[28] = molecular target: T28, CDK5 (Homo sapiens, UniProt Q00535)
T28 construct: purchased DiscoverX KINOMEscan

[29] = molecular target: T29, ACVR1B (Homo sapiens, UniProt P36896)
T29 construct: purchased DiscoverX KINOMEscan
T29 sequence (P36896 24-505): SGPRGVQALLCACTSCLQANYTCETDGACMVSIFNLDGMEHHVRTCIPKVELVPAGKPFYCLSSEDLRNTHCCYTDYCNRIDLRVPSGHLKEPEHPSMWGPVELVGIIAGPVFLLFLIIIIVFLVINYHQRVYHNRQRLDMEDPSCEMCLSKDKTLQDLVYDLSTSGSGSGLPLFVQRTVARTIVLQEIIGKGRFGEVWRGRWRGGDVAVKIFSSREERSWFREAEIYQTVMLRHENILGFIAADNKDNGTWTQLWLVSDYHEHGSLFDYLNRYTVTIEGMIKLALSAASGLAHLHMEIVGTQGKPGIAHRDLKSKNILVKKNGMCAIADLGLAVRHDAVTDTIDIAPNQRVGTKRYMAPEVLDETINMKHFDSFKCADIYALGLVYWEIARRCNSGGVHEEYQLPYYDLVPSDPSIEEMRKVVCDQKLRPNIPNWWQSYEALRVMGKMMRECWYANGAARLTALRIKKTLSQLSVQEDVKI

T13 sequence (P50750 whole entry): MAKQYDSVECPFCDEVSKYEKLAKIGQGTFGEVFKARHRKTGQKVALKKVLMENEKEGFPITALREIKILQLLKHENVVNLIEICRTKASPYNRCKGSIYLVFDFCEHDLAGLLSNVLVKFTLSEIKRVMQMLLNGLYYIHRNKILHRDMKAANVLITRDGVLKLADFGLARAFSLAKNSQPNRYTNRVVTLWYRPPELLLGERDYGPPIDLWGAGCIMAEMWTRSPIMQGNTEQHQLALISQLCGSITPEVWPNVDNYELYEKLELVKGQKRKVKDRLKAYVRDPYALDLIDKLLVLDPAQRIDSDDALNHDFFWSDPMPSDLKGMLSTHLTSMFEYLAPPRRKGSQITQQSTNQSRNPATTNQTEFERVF
T27 sequence (Q6XUX3 whole entry): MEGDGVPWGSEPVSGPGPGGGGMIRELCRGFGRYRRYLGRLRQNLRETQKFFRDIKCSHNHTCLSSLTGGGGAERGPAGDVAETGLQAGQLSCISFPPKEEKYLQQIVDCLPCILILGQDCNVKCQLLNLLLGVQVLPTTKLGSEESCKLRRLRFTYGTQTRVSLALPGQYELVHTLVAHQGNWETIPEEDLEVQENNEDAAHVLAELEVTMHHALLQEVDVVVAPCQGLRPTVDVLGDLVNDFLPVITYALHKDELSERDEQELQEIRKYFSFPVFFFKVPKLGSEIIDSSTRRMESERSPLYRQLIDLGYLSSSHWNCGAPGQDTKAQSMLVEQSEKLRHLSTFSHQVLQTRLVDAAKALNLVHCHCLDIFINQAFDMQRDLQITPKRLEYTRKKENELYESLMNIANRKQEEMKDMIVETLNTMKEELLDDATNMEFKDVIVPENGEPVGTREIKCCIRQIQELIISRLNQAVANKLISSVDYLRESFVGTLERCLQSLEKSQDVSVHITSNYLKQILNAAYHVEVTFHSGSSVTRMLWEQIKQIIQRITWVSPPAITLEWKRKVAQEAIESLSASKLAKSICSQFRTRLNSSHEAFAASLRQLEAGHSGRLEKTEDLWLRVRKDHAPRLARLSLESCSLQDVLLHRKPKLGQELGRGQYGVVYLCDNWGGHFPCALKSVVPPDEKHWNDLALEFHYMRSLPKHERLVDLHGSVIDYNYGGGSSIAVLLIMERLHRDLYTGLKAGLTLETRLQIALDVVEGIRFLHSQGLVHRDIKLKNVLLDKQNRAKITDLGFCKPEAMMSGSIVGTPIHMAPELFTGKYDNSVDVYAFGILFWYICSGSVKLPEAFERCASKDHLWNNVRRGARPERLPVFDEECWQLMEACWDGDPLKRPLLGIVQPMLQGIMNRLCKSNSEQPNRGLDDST
T25 sequence (Q8NEB9 whole entry, the tested form may be a part): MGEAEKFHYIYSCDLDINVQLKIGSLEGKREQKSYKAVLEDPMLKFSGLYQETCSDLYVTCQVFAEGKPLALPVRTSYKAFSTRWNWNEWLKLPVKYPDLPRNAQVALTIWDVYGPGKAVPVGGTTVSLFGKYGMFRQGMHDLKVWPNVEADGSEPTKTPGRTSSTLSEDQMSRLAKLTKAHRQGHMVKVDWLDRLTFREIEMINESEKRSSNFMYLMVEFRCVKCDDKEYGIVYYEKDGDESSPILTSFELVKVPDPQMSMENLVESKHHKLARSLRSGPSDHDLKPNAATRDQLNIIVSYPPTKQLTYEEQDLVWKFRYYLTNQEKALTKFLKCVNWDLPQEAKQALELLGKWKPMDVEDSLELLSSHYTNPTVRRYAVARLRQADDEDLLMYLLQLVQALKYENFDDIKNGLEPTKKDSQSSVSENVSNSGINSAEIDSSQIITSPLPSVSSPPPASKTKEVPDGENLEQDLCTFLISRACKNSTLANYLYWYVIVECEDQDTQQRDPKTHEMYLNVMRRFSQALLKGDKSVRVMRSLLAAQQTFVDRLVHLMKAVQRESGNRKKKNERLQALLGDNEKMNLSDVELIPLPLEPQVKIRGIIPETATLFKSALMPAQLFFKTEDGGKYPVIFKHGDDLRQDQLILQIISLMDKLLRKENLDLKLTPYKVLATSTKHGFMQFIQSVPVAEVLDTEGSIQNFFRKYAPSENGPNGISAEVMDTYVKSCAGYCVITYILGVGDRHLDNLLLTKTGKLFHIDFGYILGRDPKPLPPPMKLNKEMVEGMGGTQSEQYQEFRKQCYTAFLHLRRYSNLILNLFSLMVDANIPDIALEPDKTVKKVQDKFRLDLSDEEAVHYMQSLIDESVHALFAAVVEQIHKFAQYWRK
T4 sequence (P28482 whole entry): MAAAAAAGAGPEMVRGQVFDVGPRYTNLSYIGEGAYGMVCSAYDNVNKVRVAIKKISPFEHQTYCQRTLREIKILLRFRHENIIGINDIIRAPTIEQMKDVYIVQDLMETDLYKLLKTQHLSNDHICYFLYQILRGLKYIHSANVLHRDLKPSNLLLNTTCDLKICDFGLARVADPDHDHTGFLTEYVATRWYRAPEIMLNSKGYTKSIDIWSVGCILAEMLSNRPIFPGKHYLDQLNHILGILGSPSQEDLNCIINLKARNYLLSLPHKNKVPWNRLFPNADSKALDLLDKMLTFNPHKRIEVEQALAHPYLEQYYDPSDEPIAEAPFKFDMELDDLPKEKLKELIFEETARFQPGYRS
T21 sequence (P00533 25-1210 G719S): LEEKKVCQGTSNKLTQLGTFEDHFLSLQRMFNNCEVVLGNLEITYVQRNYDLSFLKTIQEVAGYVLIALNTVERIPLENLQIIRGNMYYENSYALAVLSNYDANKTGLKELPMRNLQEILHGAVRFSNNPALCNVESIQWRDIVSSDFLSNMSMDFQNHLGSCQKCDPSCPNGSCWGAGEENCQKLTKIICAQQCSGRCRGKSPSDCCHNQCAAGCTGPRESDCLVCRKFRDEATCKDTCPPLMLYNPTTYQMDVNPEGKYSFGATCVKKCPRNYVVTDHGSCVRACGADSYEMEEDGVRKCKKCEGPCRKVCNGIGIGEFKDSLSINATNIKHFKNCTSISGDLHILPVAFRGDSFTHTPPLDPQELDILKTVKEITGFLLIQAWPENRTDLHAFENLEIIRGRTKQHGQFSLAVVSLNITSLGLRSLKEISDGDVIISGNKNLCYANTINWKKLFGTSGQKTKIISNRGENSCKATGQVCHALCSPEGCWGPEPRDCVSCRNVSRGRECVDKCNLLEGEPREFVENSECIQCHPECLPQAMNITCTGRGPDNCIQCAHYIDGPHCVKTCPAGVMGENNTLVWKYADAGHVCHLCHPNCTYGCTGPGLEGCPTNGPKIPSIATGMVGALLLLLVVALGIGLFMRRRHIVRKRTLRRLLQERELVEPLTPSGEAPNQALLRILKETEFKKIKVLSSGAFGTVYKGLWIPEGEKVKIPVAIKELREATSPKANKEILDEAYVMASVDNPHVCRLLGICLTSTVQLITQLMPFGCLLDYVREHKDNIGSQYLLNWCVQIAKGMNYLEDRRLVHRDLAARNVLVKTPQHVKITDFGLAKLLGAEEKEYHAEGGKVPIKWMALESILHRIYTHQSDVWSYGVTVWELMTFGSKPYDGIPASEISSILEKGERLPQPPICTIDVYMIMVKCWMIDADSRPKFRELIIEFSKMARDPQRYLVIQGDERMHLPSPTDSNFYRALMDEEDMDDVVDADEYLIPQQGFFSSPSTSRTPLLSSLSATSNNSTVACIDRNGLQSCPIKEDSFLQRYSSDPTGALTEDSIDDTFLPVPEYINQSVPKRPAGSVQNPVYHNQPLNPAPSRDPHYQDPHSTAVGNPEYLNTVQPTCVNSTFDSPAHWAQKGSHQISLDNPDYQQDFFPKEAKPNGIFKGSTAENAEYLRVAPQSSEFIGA
T1 sequence (P29376 17-864): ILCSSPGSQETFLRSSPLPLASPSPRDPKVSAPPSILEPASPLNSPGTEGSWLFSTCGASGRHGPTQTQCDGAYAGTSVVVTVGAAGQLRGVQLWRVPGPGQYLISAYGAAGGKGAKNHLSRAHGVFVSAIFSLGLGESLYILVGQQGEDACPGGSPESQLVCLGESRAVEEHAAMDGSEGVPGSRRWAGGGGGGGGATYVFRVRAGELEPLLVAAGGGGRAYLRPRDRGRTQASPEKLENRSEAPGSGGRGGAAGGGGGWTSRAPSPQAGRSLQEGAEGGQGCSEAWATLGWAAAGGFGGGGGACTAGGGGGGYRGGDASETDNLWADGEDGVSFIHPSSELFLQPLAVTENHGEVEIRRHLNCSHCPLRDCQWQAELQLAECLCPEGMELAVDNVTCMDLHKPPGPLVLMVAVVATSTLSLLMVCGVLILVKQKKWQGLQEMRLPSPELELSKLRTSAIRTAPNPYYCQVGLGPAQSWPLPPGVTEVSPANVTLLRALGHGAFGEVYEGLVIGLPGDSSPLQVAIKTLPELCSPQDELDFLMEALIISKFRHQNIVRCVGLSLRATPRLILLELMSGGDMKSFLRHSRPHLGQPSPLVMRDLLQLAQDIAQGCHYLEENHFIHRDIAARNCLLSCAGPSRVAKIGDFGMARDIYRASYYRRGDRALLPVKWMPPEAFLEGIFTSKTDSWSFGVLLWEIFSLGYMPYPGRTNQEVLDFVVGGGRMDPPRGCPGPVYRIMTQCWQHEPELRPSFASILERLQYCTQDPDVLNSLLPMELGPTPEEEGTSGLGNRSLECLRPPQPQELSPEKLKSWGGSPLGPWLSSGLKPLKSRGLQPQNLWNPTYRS

CC(C)c1ccc(CC(=O)N2CCN(c3ccc(C#N)nn3)CC2)cc1 [PZ-2891, 6-(4-(2-(4-isopropylphenyl)acetyl)piperazin-1-yl)pyridazine-3-carbonitrile]
remaining binding at 10 µM [1]: 75% | remaining binding at 10 µM [2]: 88% | remaining binding at 10 µM [3]: 88% | remaining binding at 10 µM [4]: 86% | remaining binding at 10 µM [5]: 83% | remaining binding at 10 µM [6]: 89% | remaining binding at 10 µM [7]: 100% | remaining binding at 10 µM [8]: 88% | remaining binding at 10 µM [9]: 62% | remaining binding at 10 µM [10]: 91% | remaining binding at 10 µM [11]: 95% | remaining binding at 10 µM [12]: 97% | remaining binding at 10 µM [13]: 98% | remaining binding at 10 µM [14]: 83% | remaining binding at 10 µM [15]: 44% | remaining binding at 10 µM [16]: 87% | remaining binding at 10 µM [17]: 83% | remaining binding at 10 µM [18]: 99% | remaining binding at 10 µM [19]: 98% | remaining binding at 10 µM [20]: 89% | remaining binding at 10 µM [21]: 91% | remaining binding at 10 µM [22]: 88% | remaining binding at 10 µM [23]: 86% | remaining binding at 10 µM [24]: 64% | remaining binding at 10 µM [25]: 80% | remaining binding at 10 µM [26]: 79% | remaining binding at 10 µM [27]: 77% | remaining binding at 10 µM [28]: 87% | remaining binding at 10 µM [29]: 97%
